# Measurements as given in patent US12234221B2, “Pyridine carboxamide compounds for inhibiting NAV1.8” (Lieber Institute, Inc., priority 2018, dated 2025).
# Target: T1, human Nav1.8 (hNav1.8) ion channel (Homo sapiens, UniProt Q9Y5Y9)
# T1 construct: expressed in transfected cells; host or cells: HEK293
# Test: Nav1.8 channel inhibition, estimated IC50 (one or more of: fluorescence inhibition assay, PatchXpress, IonFlux HT automated patch clamp)
# Format: cell-based
# Settings: HEK293 cells stably expressing hNav1.8; method used per compound not stated; read-out: Activity range (estimated IC50)
# Experimental: The ability of pyridine carboxamide derivatives exemplified above to inhibit the Nav1.8 channel was determined using one or more of the methods described below.
# HEK Nav1.8 β1/β2 Stably Expressing Cell Line
# A HEK293 cell line stably expressing the human Nav1.8 (hNav1.8) ion channel with β1/β2 subunits was constructed. The cell line is suitable for IC50 determination in fluorescence and electrophysiological based assays. It is also suitable to form mechanism of action pharmacology studies in electrophysiological assays. HEK293 Nav 1.8 cells are grown as adherent monolayers in DMEM/high glucose media, 10% fetal bovine serum, Na pyruvate (2 mM), Hepes (10 mM) with selection agents G418 (400 mg/L) and puromycin (0.5 mg/L) at 37 degrees C., 10% CO2.
# Nav 1.8 Fluorescence Inhibition Assay
# Compounds were made up to or supplied as a 10-mM stock solution using DMSO as the vehicle. Concentration-response curves were generated using a Matrix multichannel pipettor. Compound source plates were made by diluting 10 mM compound stocks to create 500 μM (100×) solutions in DMSO in 96-well v-bottom plates. Compounds were then serially diluted in 100% DMSO to generate a 5 point, 4-fold dilution scheme dose response curve. 2 μL of the 100× dose response curves was then added to preincubation and stimulation assay plates. 100 μL of pre-incubation buffer and 200 μL of stimulation buffer were then added to the plates resulting in a final assay test concentration range of 5 μM to 0.02 μM with a final DMSO concentration of 1%.
# On the day of assay, plates were washed to remove cell culture media using 2K EBSS buffer (135 mM NaCl, 2 mM KCl, 5 mM Glucose, 2 mM CaCl2), 1 mM MgCl2, 10 mM HEPES, pH 7.4). The Na-sensitive fluorescent dye, Asante Natrium Green-2 (ANG-2) is incubated for 60 min to allow equilibration and then washed with 2K EBSS. Plates are the transferred to a fluorescence plate reader (FLIPR™, Molecular Devices) for fluorescence measurement using an excitation wavelength of 490 nm and an emission wavelength of 565 nm. Compounds are pre-incubated at for 5 min at final test concentration in the presence of ouabain (30 μM) to inhibit Na+ efflux through Na+/K+ exchanger. Following the pre-incubation phase, hNav1.8 channels are stimulated with 10 μM of the pyrethroid deltamethrin to prevent channel inactivation. The assay was run for 15 min with vehicle and 30 μM tetracaine serving as negative and positive controls, respectively. The peak change in fluorescence relative to negative and positive control wells was calculated and fit with a logistic equation to determine IC50.
# PatchXpress Nav 1.8 Inhibition Assay
# HEK-Nav1.8 β1/β2 cells were recorded in whole cell patch-clamp using the PatchXpress automated patch clamp platforms (Molecular Devices). Cells suspensions were obtained by trypsinization of adherent monolayers, followed by gentle rocking for minimally 30 min. Compounds were prepared from 10 mM DMSO stocks.
# Nav1.8 channel variants were evaluated using Protocol 1 (FIG. 2) in which cells were initially voltage clamped at a holding potential of −100 mV to maintain Nav1.8 in a closed resting state. After current amplitude becomes stable, the mid-point voltage of steady state inactivation was determined for each cell using a series of 5 sec conditioning steps to increasingly depolarized voltages (−100 to 0 mV) The holding potential was then reset to a voltage that produces ˜50% inactivation (Vhalf−set automatically via PatchXpress scripts) so that closed and inactivated channel inhibition can be assessed. Protocol 1 was run at a frequency of 0.1 Hz until current amplitude is steady (automatically determined by PatchXpress scripts). The effect of test reagent on Nav current amplitude was monitored using custom PatchXpress stability scripts which determines the timing of compound addition and washout. Data were processed and analyzed using DataXpress 2.0 (Molecular Devices). […]
# T1 sequence (Q9Y5Y9 whole entry): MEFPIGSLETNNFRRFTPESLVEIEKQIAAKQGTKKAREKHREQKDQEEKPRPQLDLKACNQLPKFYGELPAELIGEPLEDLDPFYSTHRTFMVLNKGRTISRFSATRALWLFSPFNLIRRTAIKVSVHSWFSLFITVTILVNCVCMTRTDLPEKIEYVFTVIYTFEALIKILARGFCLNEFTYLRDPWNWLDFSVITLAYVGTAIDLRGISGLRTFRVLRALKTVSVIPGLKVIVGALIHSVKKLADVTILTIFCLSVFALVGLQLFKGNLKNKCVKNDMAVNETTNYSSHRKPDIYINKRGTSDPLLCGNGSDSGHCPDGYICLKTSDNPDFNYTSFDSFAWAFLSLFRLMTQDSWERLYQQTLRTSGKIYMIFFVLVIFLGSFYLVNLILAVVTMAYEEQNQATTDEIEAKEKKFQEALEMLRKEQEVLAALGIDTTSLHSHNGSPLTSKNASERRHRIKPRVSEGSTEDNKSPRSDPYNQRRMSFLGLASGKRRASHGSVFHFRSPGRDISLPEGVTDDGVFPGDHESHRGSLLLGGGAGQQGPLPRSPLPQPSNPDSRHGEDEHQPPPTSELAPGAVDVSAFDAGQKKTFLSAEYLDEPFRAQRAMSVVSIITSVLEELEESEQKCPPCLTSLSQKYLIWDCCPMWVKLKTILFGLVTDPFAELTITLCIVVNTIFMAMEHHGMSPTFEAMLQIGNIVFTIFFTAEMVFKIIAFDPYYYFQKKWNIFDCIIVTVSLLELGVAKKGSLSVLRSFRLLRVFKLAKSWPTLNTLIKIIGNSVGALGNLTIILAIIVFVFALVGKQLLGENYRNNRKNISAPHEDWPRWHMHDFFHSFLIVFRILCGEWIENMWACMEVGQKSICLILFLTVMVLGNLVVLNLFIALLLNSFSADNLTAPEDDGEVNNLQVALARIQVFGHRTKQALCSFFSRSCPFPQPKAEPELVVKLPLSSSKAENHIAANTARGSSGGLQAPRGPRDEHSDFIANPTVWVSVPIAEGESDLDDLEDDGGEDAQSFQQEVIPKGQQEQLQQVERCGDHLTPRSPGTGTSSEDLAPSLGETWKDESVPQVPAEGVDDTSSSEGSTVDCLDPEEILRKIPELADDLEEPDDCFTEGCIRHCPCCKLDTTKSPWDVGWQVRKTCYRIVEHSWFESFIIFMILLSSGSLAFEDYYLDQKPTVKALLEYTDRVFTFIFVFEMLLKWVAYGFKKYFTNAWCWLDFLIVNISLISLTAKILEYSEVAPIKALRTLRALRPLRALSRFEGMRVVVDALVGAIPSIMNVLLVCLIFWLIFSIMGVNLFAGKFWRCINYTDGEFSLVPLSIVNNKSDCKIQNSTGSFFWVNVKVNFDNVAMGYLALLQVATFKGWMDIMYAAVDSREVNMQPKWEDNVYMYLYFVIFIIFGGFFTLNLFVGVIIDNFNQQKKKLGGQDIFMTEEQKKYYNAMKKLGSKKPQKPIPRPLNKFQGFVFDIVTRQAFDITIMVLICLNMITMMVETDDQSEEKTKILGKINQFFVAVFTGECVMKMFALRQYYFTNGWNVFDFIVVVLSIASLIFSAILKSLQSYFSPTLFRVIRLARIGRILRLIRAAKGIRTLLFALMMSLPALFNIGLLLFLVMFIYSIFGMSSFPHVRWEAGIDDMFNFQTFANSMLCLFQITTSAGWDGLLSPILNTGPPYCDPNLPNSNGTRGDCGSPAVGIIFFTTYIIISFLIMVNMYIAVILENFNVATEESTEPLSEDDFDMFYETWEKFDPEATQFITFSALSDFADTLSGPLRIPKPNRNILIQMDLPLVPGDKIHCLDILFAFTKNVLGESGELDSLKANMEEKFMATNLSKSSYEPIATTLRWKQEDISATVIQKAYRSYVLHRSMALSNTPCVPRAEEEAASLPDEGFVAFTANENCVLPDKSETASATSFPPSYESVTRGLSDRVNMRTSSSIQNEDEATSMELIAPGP
row,IC50 [nM],Compound
1,> 1000,"CN(C)c1cc(NC(=O)c2cnc(C(F)(F)F)cc2Oc2ccc(OC(F)(F)F)cc2Cl)ccn1 [Example 73, 4-[2-chloro-4-(trifluoromethoxy)phenoxy]-N-[2-(dimethylamino)-4-pyridyl]-6-(trifluoromethyl)pyridine-3-carboxamide]"
2,< 500,"CS(=O)(=O)c1cccc(NC(=O)c2cnc(C(F)(F)F)cc2Oc2ccc(OC(F)(F)F)cc2Cl)c1 [Example 74, 4-[2-chloro-4-(trifluoromethoxy)phenoxy]-N-(3-methylsulfonylphenyl)-6-(trifluoromethyl)pyridine-3-carboxamide]"
3,< 500,"C[S+]([O-])c1cccc(NC(=O)c2cnc(C(F)(F)F)cc2Oc2ccc(OC(F)(F)F)cc2Cl)c1 (centres unmarked) [Example 75, 4-[2-chloro-4-(trifluoromethoxy)phenoxy]-N-(3-methylsulfinylphenyl)-6-(trifluoromethyl)pyridine-3-carboxamide]"
4,< 500,"O=C(Nc1cccnc1)c1cnc(C(F)(F)F)cc1Oc1ccc(OC(F)(F)F)cc1Cl [Example 78, 4-[2-chloro-4-(trifluoromethoxy)phenoxy]-N-(3-pyridyl)-6-(trifluoromethyl)pyridine-3-carboxamide]"
5,< 500,"O=C(Nc1ccncc1)c1cnc(C(F)(F)F)cc1Oc1ccc(OC(F)(F)F)cc1Cl [Example 79, 4-[2-chloro-4-(trifluoromethoxy)phenoxy]-N-(4-pyridyl)-6-(trifluoromethyl)pyridine-3-carboxamide]"
6,< 500,"CS(=N)(=O)c1cccc(NC(=O)c2cnc(C(F)(F)F)cc2Oc2ccc(OC(F)(F)F)cc2Cl)c1 (centres unmarked) [Example 80, 4-[2-chloro-4-(trifluoromethoxy)phenoxy]-N-[3-(methylsulfonimidoyl)phenyl]-6-(trifluoromethyl)pyridine-3-carboxamide]"
7,< 500,"NC(=O)c1cccc(NC(=O)c2cnc(C(F)(F)F)cc2Oc2ccc(OC(F)(F)F)cc2Cl)c1 [Example 81, N-(3-carbamoylphenyl)-4-[2-chloro-4-(trifluoromethoxy)phenoxy]-6-(trifluoromethyl)pyridine-3-carboxamide]"
8,< 500,"CN=S(C)(=O)c1cccc(NC(=O)c2cnc(C(F)(F)F)cc2Oc2ccc(OC(F)(F)F)cc2Cl)c1 (centres unmarked) [Example 82, 4-[2-chloro-4-(trifluoromethoxy)phenoxy]-N-[3-(N,S-dimethylsulfonimidoyl)phenyl]-6-(trifluoromethyl)pyridine-3-carboxamide]"
9,< 500,"O=C(Nc1ccc[n+]([O-])c1)c1cnc(C(F)(F)F)cc1Oc1ccc(OC(F)(F)F)cc1Cl [Example 83, 4-[2-chloro-4-(trifluoromethoxy)phenoxy]-N-(1-oxidopyridin-1-ium-3-yl)-6-(trifluoromethyl)pyridine-3-carboxamide]"

# More lines, now with the values behind:
row,Compound,IC50 [nM]
1,"CS(=O)(=O)c1cccc(NC(=O)c2cc(C(F)(F)F)cnc2Oc2cccc3scnc23)c1 [Example 58, 2-(1,3-benzothiazol-4-yloxy)-N-(3-methylsulfonyl-phenyl)-5-(trifluoromethyl)pyridine-3-carboxamide]",> 1000
2,"CS(=N)(=O)c1cccc(NC(=O)c2cc(C(F)(F)F)cnc2Oc2ccc(OC(F)F)cc2)c1 (centres unmarked) [Example 59, 2-[4-(difluoromethoxy)phenoxy]-N-[3-(methylsulfonimidoyl)phenyl]-5-(trifluoromethyl)pyridine-3-carboxamide]",< 500
3,"CS(=N)(=O)c1cccc(NC(=O)c2cc(C(F)(F)F)cnc2Oc2ccc(F)cc2Cl)c1 (centres unmarked) [Example 60, 2-(2-chloro-4-fluoro-phenoxy)-N-[3-(methylsulfonimidoyl)phenyl]-5-(trifluoromethyl)pyridine-3-carboxamide]",< 500
4,"COc1ccc(Oc2ncc(C(F)(F)F)cc2C(=O)Nc2cccc(S(C)(=N)=O)c2)c(Cl)c1 (centres unmarked) [Example 61, 2-(2-chloro-4-methoxy-phenoxy)-N-[3-(methylsulfonimidoyl)phenyl]-5-(trifluoromethyl)pyridine-3-carboxamide]",< 500
5,"CS(=N)(=O)c1cccc(NC(=O)c2cc(C(F)(F)F)cnc2Oc2ccccc2Cl)c1 (centres unmarked) [Example 62, 2-(2-chlorophenoxy)-N-[3-(methylsulfonimidoyl)phenyl]-5-(trifluoromethyl)pyridine-3-carboxamide]",< 500
6,"O=C(Nc1ccnnc1)c1cc(C(F)(F)F)cnc1Oc1ccc(Cl)cc1Cl [Example 63, 2-(2,4-dichlorophenoxy)-N-pyridazin-4-yl-5-(trifluoromethyl)pyridine-3-carboxamide]",500 to 1000
7,"O=C(Nc1ccnnc1)c1cc(C(F)(F)F)cnc1Oc1ccc(OC(F)F)cc1 [Example 64, 2-[4-(difluoromethoxy)phenoxy]-N-pyridazin-4-yl-5-(trifluoromethyl)pyridine-3-carboxamide]",> 1000
8,"COc1ccc(Oc2ncc(C(F)(F)F)cc2C(=O)Nc2ccnnc2)c(Cl)c1 [Example 65, 2-(2-chloro-4-methoxy-phenoxy)-N-pyridazin-4-yl-5-(trifluoromethyl)pyridine-3-carboxamide]",> 1000
9,"COc1cc(F)ccc1Oc1nc(C(F)(F)F)ccc1C(=O)Nc1cccc(S(C)(=O)=O)c1 [Example 66, 2-(4-fluoro-2-methoxy-phenoxy)-N-(3-methylsulfonylphenyl)-6-(trifluoromethyl)pyridine-3-carboxamide]",< 500
10,"COc1cc(F)ccc1Oc1cc(C(F)(F)F)ncc1C(=O)Nc1cccc(S(C)(=O)=O)c1 [Example 67, 4-(4-fluoro-2-methoxy-phenoxy)-N-(3-methylsulfonylphenyl)-6-(trifluoromethyl)pyridine-3-carboxamide]",< 500
11,"COc1cc(F)ccc1Oc1cc(C(F)(F)F)ncc1C(=O)Nc1cccc([S+](C)[O-])c1 (centres unmarked) [Example 68, 4-(4-fluoro-2-methoxy-phenoxy)-N-(3-methylsulfinylphenyl)-6-(trifluoromethyl)pyridine-3-carboxamide]",< 500
12,"COc1cc(F)ccc1Oc1cc(C(F)(F)F)ncc1C(=O)Nc1cc(S(C)(=O)=O)ccc1F [Example 69, 4-(4-fluoro-2-methoxy-phenoxy)-N-(2-fluoro-5-methylsulfonyl-phenyl)-6-(trifluoromethyl)pyridine-3-carboxamide]",< 500
13,"CN=S(C)(=O)c1cccc(NC(=O)c2cnc(C(F)(F)F)cc2Oc2ccc(F)cc2OC)c1 (centres unmarked) [Example 70, N-[3-(N,S-dimethylsulfonimidoyl)phenyl]-4-(4-fluoro-2-methoxy-phenoxy)-6-(trifluoromethyl)pyridine-3-carboxamide]",< 500
14,"COc1cc(F)ccc1Oc1cc(C(F)(F)F)ncc1C(=O)Nc1ccnnc1 [Example 71, 4-(4-fluoro-2-methoxy-phenoxy)-N-pyridazin-4-yl-6-(trifluoromethyl)pyridine-3-carboxamide]",< 500
15,"COc1cc(F)ccc1Oc1cc(C(F)(F)F)ncc1C(=O)Nc1ccncc1 [Example 72, 4-(4-fluoro-2-methoxy-phenoxy)-N-(4-pyridyl)-6-(trifluoromethyl)pyridine-3-carboxamide]",< 500
16,"CN(C)S(=O)(=O)c1cccc(NC(=O)c2cnc(C(F)(F)F)cc2Oc2ccc(OC(F)(F)F)cc2Cl)c1 [Example 76, 4-[2-chloro-4-(trifluoromethoxy)phenoxy]-N-[3-(dimethylsulfamoyl)phenyl]-6-(trifluoromethyl)pyridine-3-carboxamide]",500 to 1000
17,"CS(=O)(=O)c1ccc(F)c(NC(=O)c2cnc(C(F)(F)F)cc2Oc2ccc(OC(F)(F)F)cc2Cl)c1 [Example 77, 4-[2-chloro-4-(trifluoromethoxy)phenoxy]-N-(2-fluoro-5-methylsulfonyl-phenyl)-6-(trifluoromethyl)pyridine-3-carboxamide]",< 500
